Patent US10106558B2, “Azolobenzazine compounds, compositions comprising these compounds and their use for controlling invertebrate pests” (BASF SE, priority 2015, dated 2018)

Key:
Type in all cases: in vivo
[1] = tested on: boll weevil (Anthonomus grandis); experiment: Action on boll weevil, eggs on insect diet in 96-well microtiter plates; conditions: 120 h, 800 ppm, egg and larval mortality visually assessed after 5 days, read-out: mortality in comparison with untreated controls
Method in brief: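 Diet in 96-well plates was infested with 5-10 A. grandis eggs and sprayed with compounds formulated in 75% water/25% DMSO, at several concentrations, in two replicates. Plates were held 5 days at about 25±1 °C and 75±5% RH. Egg and larval mortality was then scored visually.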

[2] = tested on: tobacco budworm (Heliothis virescens); experiment: Action on tobacco budworm, eggs on insect diet in 96-well microtiter plates; conditions: 120 h, egg and larval mortality visually assessed after 5 days, read-out: mortality in comparison with untreated controls
Method in brief: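 Compounds in 25% DMSO/water sprayed (10 μl) onto insect diet holding 15–25 H. virescens eggs, two replicates at several concentrations. Held 5 days at about 28±1 °C, 80±5% RH. Egg and larval mortality scored visually.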

[3] = tested on: green peach aphid (Myzus persicae) (mixed life stages); experiment: Action on green peach aphid, liquid artificial diet under artificial membrane; conditions: 72 h, 800 ppm, adult aphids on treated aphid diet, 3 days, read-out: mortality in comparison with untreated controls
Description: Example B8: Action on Green Peach Aphid (Myzus persicae) (Mixed Life Stages)
For evaluating control of green peach aphid (Myzus persicae) through systemic means the test unit consisted of 96-well-microtiter plates containing liquid artificial diet under an artificial membrane.
The compounds were formulated using a solution containing 75% v/v water and 25% v/v DMSO. Different concentrations of formulated compounds were pipetted into the aphid diet, using a custom built pipetter, at two replications.
After application, 5-8 adult aphids were placed on the artificial membrane inside the microtiter plate wells. The aphids were then allowed to suck on the treated aphid diet and incubated at about 23±1° C. and about 50±5% relative humidity for 3 days. Aphid mortality and fecundity was then visually assessed.

Measured: mortality at 800 ppm

Cc1ccc(C(C)C)c(N2C(=O)CS/C2=N\N=C\c2ccc3c(ccc4c3ncn4-c3ccc(OC(F)(F)F)cc3)n2)c1 [Compound C-6, (2Z)-3-(2-isopropyl-5-methyl-phenyl)-2-[(E)-[3-[4-(trifluoromethoxy)phenyl]imidazo[4,5-f]quinolin-7-yl]methylenehydrazono]thiazolidin-4-one]
≥ 75%: all assays above
